# Where two headings read alike, the source gives them in different places.
# What was measured:
# APEC [1] = assay: microbe, parasite or virus in culture; format: cell-based, Escherichia coli
# APEC [2] = details: 10^9 CFU with 2× MBC or 15 passages at 0.75× MIC; cited from earlier work
# APEC serotype O78 = tested on: APEC serotype O78
# Procedure: The efficacy of GIs was assessed using commercial broiler chickens (n = 6/group). […] GI compounds (ChemBridge, San Diego, CA) dissolved in dimethyl sulfoxide (DMSO) were administered orally using a syringe, twice a day, from day 4 (1 day before APEC infection) to day 8 (3 days postinfection [dpi]). The dose of each GI is described in Table S1. […] Chickens that were infected and vehicle-treated (positive control [PC]) and noninfected and nontreated (negative control [NC]) were included as controls. On day 5, chickens were infected subcutaneously (s.c.) with rifampin-resistant (Rif^r) APEC serotype O78 ([18]) (1 × 10^7 CFU/chicken). […] To prepare the APEC inoculum for infection, Rif^r APEC O78 (50 μg/ml rifampin) was grown to logarithmic phase in LB medium, washed twice with phosphate-buffered saline (PBS), and adjusted to an optical density at 600 nm (OD600) of 0.1 (5 × 10^7 CFU/ml). The clinical signs and mortality were recorded until 7 dpi. Chickens that died during this period were necropsied on the same day, lesions in internal organs (liver, heart, lung, and air sacs) were scored as described previously ([63], [71]), and the APEC loads were quantified in internal organs (liver, heart, lung, and kidney) by plating the tissue homogenates on MacConkey agar plates containing 50 μg/ml rifampin ([18]). At 7 dpi (day 12), all live birds were euthanized, lesions were scored, and the APEC loads in internal organs were quantified as described above. The body weight of chickens was measured before GI treatment (day 3) and at the day of necropsy (day 12).
# APEC O78 [3] = details: for Mortality reduction compared to PC group: 7 days, PC mortality 60%; for Cumulative lesion score: PC 8.8; for Survival of chickens: P < 0.05, log-rank test
# Procedure: Prior to selection of these doses, we conducted a preliminary study using 20-mg/liter, 200-mg/liter, and 500-mg/liter doses (doses similar to those of antibiotics currently used in the poultry industry). […] The experiment was conducted using commercial broiler chickens (n = 11/group) as described above following procedures described in Fig. S1A. […] The amount of drinking water was adjusted daily based on the age and requirement of chickens (https://www.thepoultrysite.com/articles/broiler-water-consumption). The clinical signs and mortality, lesion scores, and APEC loads were determined as described above.
# [4] = Pharmacokinetic study in plasma of chickens (LC-MS); format: in vivo
# Procedure: Details of the methods are included in the supplemental material. page 3: previously(3). […] The mixtures were then incubated at […] for 30 min and proteins were removed by ultracentrifugation at 13,000xg for 25 min at 2 °C.
# APEC O78 [5] = tested on: APEC O78; parameters: method as in PMID 30333507; details: cited from earlier work
# [6] = 20 mg/L in drinking water, vs PC
# [7] = 20 mg/liter in drinking water, vs PC
# [8] = 40 mg/L in drinking water, vs PC
# [9] = 40 mg/liter in drinking water, vs PC
# [10] = 60 mg/L in drinking water, vs PC
# [11] = 60 mg/liter in drinking water, vs PC
smiles,measurement,setting,value
COc1ccc(CNCc2cccc(C(F)(F)F)c2)cc1OCC(O)CN1CCCC1 (stereo not drawn) [GI-7],Resistance in vivo,APEC [1]; APEC isolated from chickens treated with GI-7,no in vivo resistance
same,MBC,APEC [1]; Escherichia coli,50 µM
same,MIC,APEC [1]; Escherichia coli,25 µM
same,Resistance in vitro,APEC [2],no resistance
same,"Mean APEC load, Heart","APEC serotype O78; efficacy trial, oral",2.7 Log CFU/g tissues
same,"Mean APEC load, Kidney","APEC serotype O78; efficacy trial, oral",2.3 Log CFU/g tissues
same,"Mean APEC load, Liver","APEC serotype O78; efficacy trial, oral",2.1 Log CFU/g tissues
same,"Mean APEC load, Lung","APEC serotype O78; efficacy trial, oral",2.7 Log CFU/g tissues
same,Mean lesion score in Air sacs,"APEC serotype O78; efficacy trial, oral",0.7
same,Mean lesion score in Heart,"APEC serotype O78; efficacy trial, oral",0.8
same,Mean lesion score in Liver,"APEC serotype O78; efficacy trial, oral",0.7
same,Mean lesion score in Lung,"APEC serotype O78; efficacy trial, oral",0.2
same,Survival of chickens,"APEC serotype O78; efficacy trial, oral, P ≤ 0.1, log rank test",prolonged the survival
same,Cumulative lesion score,"APEC serotype O78; efficacy trial, oral, PC 6.2",2.3
same,Mortality reduction compared to PC group,"APEC serotype O78; efficacy trial, oral, PC mortality 58.3%",41.7%
same,"% reduction in severity, Air sacs lesions","APEC serotype O78; efficacy trial, oral, vs PC",52.9%
same,"% reduction in severity, Heart lesions","APEC serotype O78; efficacy trial, oral, vs PC",60%
same,"% reduction in severity, Liver lesions","APEC serotype O78; efficacy trial, oral, vs PC",60%
same,"% reduction in severity, Lung lesions","APEC serotype O78; efficacy trial, oral, vs PC",83.3%
same,"log reduction in APEC load, Heart","APEC serotype O78; efficacy trial, oral, vs PC",2.3 Log CFU/g tissues
same,"log reduction in APEC load, Kidney","APEC serotype O78; efficacy trial, oral, vs PC",3.2 Log CFU/g tissues
same,"log reduction in APEC load, Liver","APEC serotype O78; efficacy trial, oral, vs PC",2.5 Log CFU/g tissues
same,"log reduction in APEC load, Lung","APEC serotype O78; efficacy trial, oral, vs PC",2.4 Log CFU/g tissues
same,BWG (body weight gain),APEC serotype O78; in vivo,261.3±20.4
same,"Mean APEC load, Heart",APEC O78 [3]; 20 mg/L in drinking water,6.7 Log CFU/g tissues
same,"Mean APEC load, Kidney",APEC O78 [3]; 20 mg/L in drinking water,5.9 Log CFU/g tissues
same,"Mean APEC load, Liver",APEC O78 [3]; 20 mg/L in drinking water,6.0 Log CFU/g tissues
same,"Mean APEC load, Lung",APEC O78 [3]; 20 mg/L in drinking water,6.3 Log CFU/g tissues
same,"log reduction in APEC load, Heart",APEC O78 [3]; [6],-0.2 Log CFU/g tissues
same,"log reduction in APEC load, Kidney",APEC O78 [3]; [6],0.2 Log CFU/g tissues
same,"log reduction in APEC load, Liver",APEC O78 [3]; [6],-0.1 Log CFU/g tissues
same,"log reduction in APEC load, Lung",APEC O78 [3]; [6],-0.4 Log CFU/g tissues
same,Mean lesion score in Air sacs,APEC O78 [3]; 20 mg/liter in drinking water,2.3
same,Mean lesion score in Heart,APEC O78 [3]; 20 mg/liter in drinking water,2.7
same,Mean lesion score in Liver,APEC O78 [3]; 20 mg/liter in drinking water,2
same,Mean lesion score in Lung,APEC O78 [3]; 20 mg/liter in drinking water,1.8
same,Mortality reduction compared to PC group,APEC O78 [3]; 20 mg/liter in drinking water,10%
same,Cumulative lesion score,APEC O78 [3]; 20 mg/liter in drinking water,8.8
same,"% reduction in severity, Air sacs lesions",APEC O78 [3]; [7],1.4%
same,"% reduction in severity, Heart lesions",APEC O78 [3]; [7],−9.5%
same,"% reduction in severity, Liver lesions",APEC O78 [3]; [7],0%
same,"% reduction in severity, Lung lesions",APEC O78 [3]; [7],10%
same,"Mean APEC load, Heart",APEC O78 [3]; 40 mg/L in drinking water,4.4 Log CFU/g tissues
same,"Mean APEC load, Kidney",APEC O78 [3]; 40 mg/L in drinking water,4.2 Log CFU/g tissues
same,"Mean APEC load, Liver",APEC O78 [3]; 40 mg/L in drinking water,3.9 Log CFU/g tissues
same,"Mean APEC load, Lung",APEC O78 [3]; 40 mg/L in drinking water,4.0 Log CFU/g tissues
same,"log reduction in APEC load, Heart",APEC O78 [3]; [8],2.0 Log CFU/g tissues
same,"log reduction in APEC load, Kidney",APEC O78 [3]; [8],1.9 Log CFU/g tissues
same,"log reduction in APEC load, Liver",APEC O78 [3]; [8],2.0 Log CFU/g tissues
same,"log reduction in APEC load, Lung",APEC O78 [3]; [8],2.0 Log CFU/g tissues
same,Reduction of severity of APEC lesions in internal organs,"APEC O78 [3]; 40 mg/liter and 60 mg/liter in drinking water, vs PC",up to 36.3%
same,Mean lesion score in Heart,APEC O78 [3]; 40 mg/liter in drinking water,2.6
same,Mean lesion score in Liver,APEC O78 [3]; 40 mg/liter in drinking water,2
same,Mortality reduction compared to PC group,APEC O78 [3]; 40 mg/liter in drinking water,50%
same,Survival of chickens,APEC O78 [3]; 40 mg/liter in drinking water,prolonged the survival
same,Cumulative lesion score,APEC O78 [3]; 40 mg/liter in drinking water,7.7
same,"% reduction in severity, Heart lesions",APEC O78 [3]; [9],−5.4%
same,"% reduction in severity, Liver lesions",APEC O78 [3]; [9],0%
same,"% reduction in severity, Lung lesions",APEC O78 [3]; [9],30%
same,"Mean APEC load, Heart",APEC O78 [3]; 60 mg/L in drinking water,4.0 Log CFU/g tissues
same,"Mean APEC load, Kidney",APEC O78 [3]; 60 mg/L in drinking water,3.6 Log CFU/g tissues
same,"Mean APEC load, Liver",APEC O78 [3]; 60 mg/L in drinking water,3.5 Log CFU/g tissues
same,"Mean APEC load, Lung",APEC O78 [3]; 60 mg/L in drinking water,4.4 Log CFU/g tissues
same,"log reduction in APEC load, Heart",APEC O78 [3]; [10],2.4 Log CFU/g tissues
same,"log reduction in APEC load, Kidney",APEC O78 [3]; [10],2.5 Log CFU/g tissues
same,"log reduction in APEC load, Liver",APEC O78 [3]; [10],2.4 Log CFU/g tissues
same,"log reduction in APEC load, Lung",APEC O78 [3]; [10],1.6 Log CFU/g tissues
same,Mean lesion score in Heart,APEC O78 [3]; 60 mg/liter in drinking water,2.1
same,Mean lesion score in Lung,APEC O78 [3]; 60 mg/liter in drinking water,1.4
same,Mortality reduction compared to PC group,APEC O78 [3]; 60 mg/liter in drinking water,50.9%
same,Survival of chickens,APEC O78 [3]; 60 mg/liter in drinking water,prolonged the survival
same,Cumulative lesion score,APEC O78 [3]; 60 mg/liter in drinking water,6.6
same,"% reduction in severity, Air sacs lesions",APEC O78 [3]; [11],33.8%
same,"% reduction in severity, Heart lesions",APEC O78 [3]; [11],15.2%
same,"% reduction in severity, Liver lesions",APEC O78 [3]; [11],13.6%
same,"% reduction in severity, Lung lesions",APEC O78 [3]; [11],36.3%
same,Anti-APEC effect compared to treatment at 60 mg/liter,"APEC O78 [3]; 80 mg/liter, follow-up study, data not shown",did not result in a better anti-APEC effect
same,Cmax,"[4]; commercial broiler, plasma, po, mean ± standard deviation, read-out: Peak plasma concentration (Cmax)",434 ± 388 ng/mL
same,Tmax,"[4]; commercial broiler, plasma, po, postadministration, read-out: Time to maximum concentration (Tmax)",8 h
same,Half-life,[4]; comparison in words,shorter half-life than SDM
same,Cumulative accumulation in plasma after repeated administration,[4]; data not shown,no cumulative accumulation
same,Excretion,[4]; plasma,≤ 24 h
same,Absorption (time at which absorbed),"[4]; plasma, drinking water delivery",0.5 h
same,MIC,APEC O78 [5],25 µM
